Assays:
[1] = Blood glucose in NIDDM patients continuously infused for ten hours during the night (Example 2); type: in vivo, human; settings: five NIDDM patients
Protocol: GLP-1 (7-36) amide was administered by a subcutaneous infusion at a dose rate of 1.2 pmol/kg/hr, for ten hours during the night, to five patients having non-insulin dependent diabetes (NIDDM). […] The rate of insulin infusion was adjusted every two hours to achieve optimum control, and to avoid hypoglycemia.

[2] = Blood glucose in NIDDM patients infused for three hours at each meal during the day (Example 3); type: in vivo, human; settings: five NIDDM patients
Excerpt: During the day, GLP-1 (7-36) amide was infused into five NIDDM patients for three hours during breakfast, lunch, and dinner.

[3] = overnight glucose infusion 5 mg/kg/min before elective abdominal surgery (Ljungqvist 1994); cited from earlier work
[4] = Hormone levels (RIA) in patients undergoing hipartroplasty with hyperinsulinemic, normoglycemic clamp before and during surgery; type: in vivo, human; parameters: Glucagon / Cortisol: unit not given here
Protocol: (§1) After one hour at steady state conditions, all patients underwent a standardized surgical treatment (hipartroplasty). […] The hyperinsulinemic, normoglycemic clamp was then maintained during surgery and continued for a further 3-4 hours after surgery. The data will be presented according to the following nomenclature:
(§2) The control group received no basal or preop clamp on the day of surgery.
Blood samples were collected from a heated hand vein repeatedly during the basal, preop, early op, late op and postop periods. Blood glucose was measured immediately upon collection using the glucose oxidase method (Yellow Springs Instruments, Yellow Springs, Ohio) [Hugget, A. S., et al., Lancet 2:368-70 (1957)]. […] Methods of hormone radioimmunoassay, Academic Press, New York and London (1979) pp. 643-56]; and glucagon (Euro-Diagnostica AB, Malm6, Sweden) [Faloona, G. R., et al., Glucagpn radioimmunoassay technique. 5 Vol. 1: Academic Press, New York (1974)].
(§3) All values are individual values, or mean+SEM (standard error of the mean). Statistical significance is accepted at p<0.05 using Wilcoxon's signed rank test and the Mann-Whitney U-test for paired and unpaired data respectively.

[5] = Indirect calorimetry: substrate oxidation rates and energy expenditure during and after surgery; type: in vivo, human
Protocol: Indirect calorimetry (Deltatrac® Dansjoo, Sweden) [Frayn, K. N. J. Appl. Physiol. 55(2):628-34 (1983); Takala, J., et al., Crit. Care Med. 17(10): 1041-47 (1989)] was performed for 30 minutes during the basal phase, twice during surgery (early op and late op), and during the last 30 minutes of the preop and postop clamps. Timed sampling of urine for analysis of urinary urea excretion was performed. After correction for changes in urea pool size [Tappy, L, et al., Diabetes 37:1212-16 (1988)], non-protein energy expenditure (EE), respiratory quotients (RQ) and substrate oxidation rates were calculated.

[6] = Glucose infusion rate (GIR) in hyperinsulinemic, normoglycemic clamp, preop vs postop, elective surgery patients; type: in vivo, human
Protocol: as §1, §2, §3

[7] = Hour 21:00, continuous infusion for ten hours during the night (GLP-1 (7-36) amide sc 1.2 pmol/kg/hr; insulin rate adjusted every two hours)
[8] = Hour 7:00, GLP-1 (7-36) amide infused three hours from start of each meal, insulin sc injection just before each meal
[9] = basal, 30 min before start of insulin infusion, insulin group n=7, mean ± SEM
[10] = early op, insulin 0.8 mU/kg/min iv, n=7
[11] = late op, insulin 0.8 mU/kg/min iv, n=7
[12] = postop clamp, insulin 0.8 mU/kg/min iv, n=7
[13] = preop clamp, insulin 0.8 mU/kg/min iv, n=7
[14] = insulin group vs control, p<0.05

Question: Which “Average Blood Glucose” value ([1]; Hour 0:00, night infusion) does the source give for CC[C@H](C)[C@H](NC(=O)[C@H](Cc1ccccc1)NC(=O)[C@H](CCC(=O)O)NC(=O)[C@H](CCCCN)NC(=O)[C@H](C)NC(=O)[C@H](C)NC(=O)[C@H](CCC(N)=O)NC(=O)CNC(=O)[C@H](CCC(=O)O)NC(=O)[C@H](CC(C)C)NC(=O)[C@H](Cc1ccc(O)cc1)NC(=O)[C@H](CO)NC(=O)[C@H](CO)NC(=O)[C@@H](NC(=O)[C@H](CC(=O)O)NC(=O)[C@H](CO)NC(=O)[C@@H](NC(=O)[C@H](Cc1ccccc1)NC(=O)[C@@H](NC(=O)CNC(=O)[C@H](CCC(=O)O)NC(=O)[C@H](C)NC(=O)[C@@H](N)Cc1c[nH]cn1)[C@@H](C)O)[C@@H](C)O)C(C)C)C(=O)N[C@@H](C)C(=O)N[C@@H](Cc1c[nH]c2ccccc12)C(=O)N[C@@H](CC(C)C)C(=O)N[C@H](C(=O)N[C@@H](CCCCN)C(=O)NCC(=O)N[C@@H](CCCNC(=N)N)C(N)=O)C(C)C [GLP-1 (7-36) amide, GLP-1(7-36) amide] here?
Answer: 4.4 mM

Question: What about the “Average Blood Glucose” value ([1]; Hour 1:00, night infusion) of the same molecule?
Answer: 4.4 mM

Question: And the “Average Blood Glucose” value ([1]; Hour 2:00, night infusion)?
Answer: 4.8 mM

Question: And the “Average Blood Glucose” value ([1]; Hour 3:00, night infusion)?
Answer: 5.2 mM

Question: And the “Average Blood Glucose” value ([1]; Hour 4:00, night infusion)?
Answer: 5.4 mM

Question: And the “Average Blood Glucose” value ([1]; Hour 5:00, night infusion)?
Answer: 5.8 mM

Question: And the “Average Blood Glucose” value ([1]; Hour 6:00, night infusion)?
Answer: 6.0 mM

Question: And the “Average Blood Glucose” value ([1]; Hour 7:00, night infusion)?
Answer: 6.2 mM

Question: And the “Average Blood Glucose” value [1, 7]?
Answer: 7.5 mM

Question: What about the “Average Blood Glucose” value ([1]; Hour 22:00, night infusion) of the same molecule?
Answer: 5.4 mM

Question: And the “Average Blood Glucose” value ([1]; Hour 23:00, night infusion)?
Answer: 4.1 mM

Question: And the “Metabolic control compared with insulin” value ([1]; night infusion)?
Answer: better than that achieved by insulin

Question: What about the “Effect on blood glucose” value ([1]; subcutaneous infusion 1.2 pmol/kg/hr, ten hours during the night) of the same molecule?
Answer: nearly normalized blood glucose

Question: And the “Average Blood Glucose” value [2, 8]?
Answer: 5.4 mM

Question: What about the “Average Blood Glucose” value ([2]; Hour 8:00, meal-time dosing) of the same molecule?
Answer: 4.9 mM

Question: What about the “Average Blood Glucose” value ([2]; Hour 9:00, meal-time dosing) of the same molecule?
Answer: 5.7 mM

Question: What about the “Average Blood Glucose” value ([2]; Hour 10:00, meal-time dosing) of the same molecule?
Answer: 5.8 mM

Question: And the “Average Blood Glucose” value ([2]; Hour 11:00, meal-time dosing)?
Answer: 8.1 mM

Question: What about the “Average Blood Glucose” value ([2]; Hour 12:00, meal-time dosing) of the same molecule?
Answer: 9.4 mM

Question: And the “Average Blood Glucose” value ([2]; Hour 13:00, meal-time dosing)?
Answer: 7.2 mM

Question: What about the “Average Blood Glucose” value ([2]; Hour 14:00, meal-time dosing) of the same molecule?
Answer: 5.3 mM

Question: And the “Average Blood Glucose” value ([2]; Hour 15:00, meal-time dosing)?
Answer: 7.2 mM

Question: What about the “Average Blood Glucose” value ([2]; Hour 16:00, meal-time dosing) of the same molecule?
Answer: 10.4 mM

Question: And the “Average Blood Glucose” value ([2]; Hour 17:00, meal-time dosing)?
Answer: 9.2 mM

Question: What about the “Average Blood Glucose” value ([2]; Hour 18:00, meal-time dosing) of the same molecule?
Answer: 5.7 mM

Question: And the “Average Blood Glucose” value ([2]; Hour 19:00, meal-time dosing)?
Answer: 6.6 mM

Question: And the “Average Blood Glucose” value ([2]; Hour 20:00, meal-time dosing)?
Answer: 8.3 mM

Question: What about the “Average Blood Glucose” value ([2]; Hour 21:00, meal-time dosing) of the same molecule?
Answer: 9.3 mM

Question: And the “Blood glucose level immediately after terminating each infusion” value [2]?
Answer: increased significantly

Question: And the “Post-prandial glucose excursions observed with insulin injection” value ([2]; while GLP-1 was infused)?
Answer: eliminated

Question: With O=C[C@H](O)[C@@H](O)[C@H](O)[C@H](O)CO [glucose] as the molecule, how does the “Average loss of insulin sensitivity after the operation” value [3] read?
Answer: 32%

Question: Which C-peptide [4, 9] does the source give for “insulin: insulin (Actrapid®, Novo, Copenhagen) in Example 1; insulin comparator in Examples 2 and 3” here?
Answer: .68 ± .09

Question: What about the Cortisol [4, 9] of the same molecule?
Answer: 171 ± 41

Question: And the Glucagon [4, 9]?
Answer: 58 ± 7

Question: What about the C-peptide ([4]; early op (10 to 40 min after initiation of surgery), insulin 0.8 mU/kg/min iv, n=7) of the same molecule?
Answer: .42 ±.06

Question: What about the Cortisol [4, 10] of the same molecule?
Answer: 234 ± 46

Question: What about the Glucagon [4, 10] of the same molecule?
Answer: 40 ± 3

Question: What about the “C-peptide levels during surgery compared to the control group” value ([4]; insulin group vs fasted control) of the same molecule?
Answer: lower

Question: What about the Serum insulin levels ([4]; insulin group, during surgery and the postop clamp, 0.8 mU/kg/min iv) of the same molecule?
Answer: around 60 μU/ml

Question: And the “Serum cortisol levels after surgery” value ([4]; insulin group, vs preop)?
Answer: decreased

Question: What about the “Serum glucagon levels after surgery” value ([4]; insulin group, vs preop, p<0.05) of the same molecule?
Answer: decreased

Question: And the C-peptide ([4]; late op (last 30 min of surgery), insulin 0.8 mU/kg/min iv, n=7)?
Answer: .58 ± .12

Question: And the Cortisol [4, 11]?
Answer: 212 ± 44

Question: And the Glucagon [4, 11]?
Answer: 35 ± 4

Question: What about the C-peptide [4, 12] of the same molecule?
Answer: .52 ± .11

Question: What about the Cortisol [4, 12] of the same molecule?
Answer: 172 ± 83

Question: What about the Glucagon [4, 12] of the same molecule?
Answer: 33 ± 4

Question: What about the Cortisol [4, 13] of the same molecule?
Answer: 266 ± 35

Question: What about the Glucagon [4, 13] of the same molecule?
Answer: 52 ± 3

Question: What about the C-peptide ([4]; preop clamp, insulin 0.8 mU/kg/min iv, n=7, mean ± SEM) of the same molecule?
Answer: .45 ± .05

Question: And the “Average Blood Glucose” value ([1]; Hour 0:00, night infusion)?
Answer: 5.6 mM

Question: And the “Average Blood Glucose” value ([1]; Hour 1:00, night infusion)?
Answer: 5.1 mM

Question: And the “Average Blood Glucose” value ([1]; Hour 2:00, night infusion)?
Answer: 5.2 mM

Question: And the “Average Blood Glucose” value ([1]; Hour 3:00, night infusion)?
Answer: 5.4 mM

Question: What about the “Average Blood Glucose” value ([1]; Hour 4:00, night infusion) of the same molecule?
Answer: 5.7 mM

Question: And the “Average Blood Glucose” value ([1]; Hour 5:00, night infusion)?
Answer: 6.0 mM

Question: What about the “Average Blood Glucose” value ([1]; Hour 6:00, night infusion) of the same molecule?
Answer: 6.1 mM

Question: What about the “Average Blood Glucose” value ([1]; Hour 7:00, night infusion) of the same molecule?
Answer: 6.1 mM

Question: What about the “Average Blood Glucose” value [1, 7] of the same molecule?
Answer: 6.9 mM

Question: And the “Average Blood Glucose” value ([1]; Hour 22:00, night infusion)?
Answer: 6.6 mM

Question: What about the “Average Blood Glucose” value ([1]; Hour 23:00, night infusion) of the same molecule?
Answer: 5.9 mM

Question: And the “Substrate oxidation rates at the postop clamp as compared to the preop clamp” value ([5]; insulin group)?
Answer: no change

Question: What about the “Resting energy expenditure (EE) during or after surgery, between groups” value ([5]; insulin group vs control) of the same molecule?
Answer: did not differ

Question: What about the “Fat oxidation rates during surgery” value [5, 14] of the same molecule?
Answer: significantly lower

Question: What about the “Glucose oxidation rates during surgery” value [5, 14] of the same molecule?
Answer: significantly higher

Question: What about the “Catabolic changes after surgery” value ([6]; elevated insulin levels before and maintained throughout the operation) of the same molecule?
Answer: completely abolished

Question: And the “Change in average GIR in the postop clamp compared to the preop clamp” value ([6]; insulin group n=7, p=0.2)?
Answer: +16±20%

Question: And the “Average GIR during the postop clamp compared to the control group” value [6, 14]?
Answer: significantly higher

Question: And the “Average Blood Glucose” value [2, 8]?
Answer: 6.1 mM

Question: What about the “Average Blood Glucose” value ([2]; Hour 8:00, meal-time dosing) of the same molecule?
Answer: 7.0 mM

Question: And the “Average Blood Glucose” value ([2]; Hour 9:00, meal-time dosing)?
Answer: 9.1 mM

Question: And the “Average Blood Glucose” value ([2]; Hour 10:00, meal-time dosing)?
Answer: 9.9 mM

Question: What about the “Average Blood Glucose” value ([2]; Hour 11:00, meal-time dosing) of the same molecule?
Answer: 8.2 mM

Question: What about the “Average Blood Glucose” value ([2]; Hour 12:00, meal-time dosing) of the same molecule?
Answer: 6.5 mM

Question: What about the “Average Blood Glucose” value ([2]; Hour 13:00, meal-time dosing) of the same molecule?
Answer: 9.1 mM

Question: What about the “Average Blood Glucose” value ([2]; Hour 14:00, meal-time dosing) of the same molecule?
Answer: 8.1 mM

Question: What about the “Average Blood Glucose” value ([2]; Hour 15:00, meal-time dosing) of the same molecule?
Answer: 7.0 mM

Question: What about the “Average Blood Glucose” value ([2]; Hour 16:00, meal-time dosing) of the same molecule?
Answer: 7.2 mM

Question: And the “Average Blood Glucose” value ([2]; Hour 17:00, meal-time dosing)?
Answer: 6.5 mM

Question: What about the “Average Blood Glucose” value ([2]; Hour 18:00, meal-time dosing) of the same molecule?
Answer: 7.3 mM

Question: And the “Average Blood Glucose” value ([2]; Hour 19:00, meal-time dosing)?
Answer: 6.1 mM

Question: And the “Average Blood Glucose” value ([2]; Hour 20:00, meal-time dosing)?
Answer: 6.0 mM

Question: What about the “Average Blood Glucose” value ([2]; Hour 21:00, meal-time dosing) of the same molecule?
Answer: 6.4 mM

From patent publication US6006753A, “Use of GLP-1 or analogs to abolish catabolic changes after surgery” (Eli Lilly and Company, priority 1997, dated 1999)
